How the values were obtained:
Format in all cases: in vivo
[1] = system: pigweed (Amaranthus retroflexus); assay: Preemergence herbicidal activity, pigweed; conditions: soil spray, visual after 3 weeks, 0 no injury, 100 complete kill or no germination
Summary of the method: (§1)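 Visual injury score (0% = none, 100% = complete kill or no germination) vs untreated controls at 3 weeks. Pre-emergence soil spray on seeded pots, max 4.48 kg/ha. Greenhouse: ~15 h photoperiod, day 23-29 °C, night 22-28 °C, top-irrigated.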

[2] = system: giant foxtail (Setaria faberi); assay: Postemergence herbicidal activity, giant foxtail; conditions: foliar spray, visual after 2 weeks, 0 no injury, 100 complete kill
Summary of the method: (§2)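 Postemergence foliar spray to pots at 1st–2nd true leaf, grown 7–21 d at ~23–29 °C day. Spray carrier: acetone/water/IPA/DMSO/crop oil/Triton X-155; 1 ppm ≈ 1 g/ha. Read-out: visual injury 0 (none) to 100% (complete kill), 2 wk.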

[3] = system: velvetleaf (Abutilion theophrasti); assay: Preemergence herbicidal activity, velvetleaf; conditions: soil spray, visual after 3 weeks, 0 no injury, 100 complete kill or no germination
Summary of the method: as §1

[4] = system: blackgrass (Alopecurus myosuroides); assay: Postemergence herbicidal activity, blackgrass; conditions: foliar spray, visual after 2 weeks, 0 no injury, 100 complete kill
Summary of the method: as §2

wild oats (Avena fatua) [5] = assay: Preemergence herbicidal activity, wild oats; conditions: soil spray, visual after 3 weeks, 0 no injury, 100 complete kill or no germination
Summary of the method: as §1

[6] = system: Rox orange sorghum (Sorghum bicolor); assay: Postemergence herbicidal activity, Rox orange sorghum; conditions: foliar spray, visual after 2 weeks, 0 no injury, 100 complete kill
Summary of the method: as §2

[7] = system: wild buckwheat (Polygonum convolvulus); assay: Postemergence herbicidal activity, wild buckwheat; conditions: foliar spray, visual after 2 weeks, 0 no injury, 100 complete kill
Summary of the method: as §2

[8] = system: cocklebur (Xanthium strumarium); assay: Preemergence herbicidal activity, cocklebur; conditions: soil spray, visual after 3 weeks, 0 no injury, 100 complete kill or no germination
Summary of the method: as §1

[9] = system: morningglory (Ipomoea hederacea); assay: Postemergence herbicidal activity, morningglory; conditions: foliar spray, visual after 2 weeks, 0 no injury, 100 complete kill
Summary of the method: as §2

[10] = system: Rox orange sorghum (Sorghum bicolor); assay: Preemergence herbicidal activity, Rox orange sorghum; conditions: soil spray, visual after 3 weeks, 0 no injury, 100 complete kill or no germination
Summary of the method: as §1

[11] = system: pigweed (Amaranthus retroflexus); assay: Postemergence herbicidal activity, pigweed; conditions: foliar spray, visual after 2 weeks, 0 no injury, 100 complete kill
Summary of the method: as §2

[12] = system: lambsquarters (Chenopodium album); assay: Postemergence herbicidal activity, lambsquarters; conditions: foliar spray, visual after 2 weeks, 0 no injury, 100 complete kill
Summary of the method: as §2

viola (Viola tricolor) = assay: Postemergence herbicidal activity, viola; conditions: foliar spray, visual after 2 weeks, 0 no injury, 100 complete kill
Summary of the method: as §2

[13] = system: crabgrass (Digitaria sanguinalis); assay: Preemergence herbicidal activity, crabgrass; conditions: soil spray, visual after 3 weeks, 0 no injury, 100 complete kill or no germination
Summary of the method: as §1

[14] = system: wild poinsettia (Euphorbia heterophylla); assay: Preemergence herbicidal activity, wild poinsettia; conditions: soil spray, visual after 3 weeks, 0 no injury, 100 complete kill or no germination
Summary of the method: as §1

[15] = system: lambsquarters (Chenopodium album); assay: Preemergence herbicidal activity, lambsquarters; conditions: soil spray, visual after 3 weeks, 0 no injury, 100 complete kill or no germination
Summary of the method: as §1

[16] = system: velvetleaf (Abutilion theophrasti); assay: Postemergence herbicidal activity, velvetleaf; conditions: foliar spray, visual after 2 weeks, 0 no injury, 100 complete kill
Summary of the method: as §2

[17] = system: cocklebur (Xanthium strumarium); assay: Postemergence herbicidal activity, cocklebur; conditions: foliar spray, visual after 2 weeks, 0 no injury, 100 complete kill
Summary of the method: as §2

[18] = system: blackgrass (Alopecurus myosuroides); assay: Preemergence herbicidal activity, blackgrass; conditions: soil spray, visual after 3 weeks, 0 no injury, 100 complete kill or no germination
Summary of the method: as §1

[19] = system: barnyardgrass (Echinochloa crus-galli); assay: Preemergence herbicidal activity, barnyardgrass; conditions: soil spray, visual after 3 weeks, 0 no injury, 100 complete kill or no germination
Summary of the method: as §1

wild oats (Avena fatua) [20] = assay: Postemergence herbicidal activity, wild oats; conditions: foliar spray, visual after 2 weeks, 0 no injury, 100 complete kill
Summary of the method: as §2

[21] = system: chickweed (Stellaria media); assay: Postemergence herbicidal activity, chickweed; conditions: foliar spray, visual after 2 weeks, 0 no injury, 100 complete kill
Summary of the method: as §2

[22] = system: giant foxtail (Setaria faberi); assay: Preemergence herbicidal activity, giant foxtail; conditions: soil spray, visual after 3 weeks, 0 no injury, 100 complete kill or no germination
Summary of the method: as §1

[23] = system: morningglory (Ipomoea hederacea); assay: Preemergence herbicidal activity, morningglory; conditions: soil spray, visual after 3 weeks, 0 no injury, 100 complete kill or no germination
Summary of the method: as §1

## COc1cscc1S(=O)(=O)Nc1nc2c(Cl)cnc(OC)n2n1 [Compound 14]
[1]; 35 g/Ha
  AMARE preemergence injury score 0-100: 80%
[2]; 31.3 ppm
  SETFA postemergence injury score 0-100: 95%
[3]; 35 g/Ha
  ABUTH preemergence injury score 0-100: 80%
[4]; 31.3 ppm
  ALOMY postemergence injury score 0-100: 80%
Wild oats (Avena fatua) [5]; 35 g/Ha
  AVEFA preemergence injury score 0-100: 100%
[6]; 31.3 ppm
  SORBI postemergence injury score 0-100: 95%
[7]; 31.3 ppm
  POLCO postemergence injury score 0-100: 95%
[8]; 35 g/Ha
  XANST preemergence injury score 0-100: 60%
[9]; 31.3 ppm
  IPOHE postemergence injury score 0-100: 80%
[10]; 35 g/Ha
  SORBI preemergence injury score 0-100: 100%
[11]; 31.3 ppm
  AMARE postemergence injury score 0-100: 95%
[12]; 31.3 ppm
  CHEAL postemergence injury score 0-100: 100%
Viola (Viola tricolor); 31.3 ppm
  VIOTR postemergence injury score 0-100: 75%
[13]; 35 g/Ha
  DIGSA preemergence injury score 0-100: 100%
[14]; 35 g/Ha
  EPHHL preemergence injury score 0-100: 30%
[15]; 35 g/Ha
  CHEAL preemergence injury score 0-100: 98%
[16]; 31.3 ppm
  ABUTH postemergence injury score 0-100: 90%
[17]; 31.3 ppm
  XANST postemergence injury score 0-100: 95%
[18]; 35 g/Ha
  ALOMY preemergence injury score 0-100: 100%
[19]; 35 g/Ha
  ECHCG preemergence injury score 0-100: 98%
Wild oats (Avena fatua) [20]; 31.3 ppm
  AVEFA postemergence injury score 0-100: 80%
[21]; 31.3 ppm
  STEME postemergence injury score 0-100: 100%
[22]; 35 g/Ha
  SETFA preemergence injury score 0-100: 100%
[23]; 35 g/Ha
  IPOHE preemergence injury score 0-100: 60%

## COc1cc(OC)n2nc(NS(=O)(=O)c3cscc3OC)nc2n1 [Compound 15]
[1]; 8.8 g/Ha
  AMARE preemergence injury score 0-100: 85%
[2]; 15.6 ppm
  SETFA postemergence injury score 0-100: 100%
[3]; 8.8 g/Ha
  ABUTH preemergence injury score 0-100: 90%
[4]; 15.6 ppm
  ALOMY postemergence injury score 0-100: 80%
Wild oats (Avena fatua) [5]; 8.8 g/Ha
  AVEFA preemergence injury score 0-100: 100%
[6]; 15.6 ppm
  SORBI postemergence injury score 0-100: 100%
[7]; 15.6 ppm
  POLCO postemergence injury score 0-100: 80%
[8]; 8.8 g/Ha
  XANST preemergence injury score 0-100: 60%
[9]; 15.6 ppm
  IPOHE postemergence injury score 0-100: 70%
[10]; 8.8 g/Ha
  SORBI preemergence injury score 0-100: 100%
[11]; 15.6 ppm
  AMARE postemergence injury score 0-100: 90%
[12]; 15.6 ppm
  CHEAL postemergence injury score 0-100: 90%
Viola (Viola tricolor); 15.6 ppm
  VIOTR postemergence injury score 0-100: 70%
[13]; 8.8 g/Ha
  DIGSA preemergence injury score 0-100: 100%
[14]; 8.8 g/Ha
  EPHHL preemergence injury score 0-100: 90%
[15]; 8.8 g/Ha
  CHEAL preemergence injury score 0-100: 98%
[16]; 15.6 ppm
  ABUTH postemergence injury score 0-100: 70%
[17]; 15.6 ppm
  XANST postemergence injury score 0-100: 90%
[18]; 8.8 g/Ha
  ALOMY preemergence injury score 0-100: 100%
[19]; 8.8 g/Ha
  ECHCG preemergence injury score 0-100: 80%
Wild oats (Avena fatua) [20]; 15.6 ppm
  AVEFA postemergence injury score 0-100: 95%
[21]; 15.6 ppm
  STEME postemergence injury score 0-100: 90%
[22]; 8.8 g/Ha
  SETFA preemergence injury score 0-100: 100%
[23]; 8.8 g/Ha
  IPOHE preemergence injury score 0-100: 70%

From patent US6645918B1, “N-([1,2,4]triazoloazinyl)thiophenesulfonamide compounds and their use as herbicides” (Dow AgroSciences LLC, priority 2000, dated 2003)
